Results on two compounds are retold here after patent publication US8969081B2, “Caudal motor neuron derived from embryonic stem cells under conditions essentially free of any retinoid” (The Trustees of Columbia University in the City of New York, priority 2008, dated 2015).

“Also recorded” adds a separate entry of the source.

For experiment [1], the system named is Hb9-GFP ES cells. As to conditions: MNs generated in the presence of RA (Wichterle et al., 2002); cited from earlier work.
For experiment [2], the system named is Hb9-GFP ES cells. Put plainly: Efficiency of motor neuron specification (Hb9-GFP+ cells). It counts as cell-based, mouse.
Experiment [3] deals with embryoid bodies from ES cells. The experiment is described as follows: Dorso-ventral progenitor marker expression in embryoid bodies. As to conditions: 1 μM HhAg1.3, absence of RA. It counts as cell-based, mouse. As to the method: (§1) Immunocytochemistry on ES cell-derived MNs and EBs was performed as previously described (Wichterle et al., 2002). Antibodies against the following proteins were used in the analysis during this study: Otx2, Hoxa5, Hoxc8, Hoxc6, Hoxc9, Hoxd9, Hoxd10, Foxp1, Lhx3, Pea3, Scip, NeuN, dsRed, NF.
To determine whether motor neuron progenitors are correctly specified at 1 μM concentrations of HhAg1.3 expression pattern of a series of DV progenitor markers were examined.
The endogenous Shh signaling centers have been identified as clusters of Foxa2+ cells expressing Shh (FIG. 2D).
Immunocytochemistry on dissociated ES-MNs and cryosectioned EBs was performed as previously described (Wichterle et al., 2002). In this study, the following antibodies were used: goat anti-Meis1 (Santa Cruz Biotechnology, SCB), mouse anti-Lhx3 (Developmental Studies Hybridoma Bank, DSHB), mouse anti-Lhx1/2 (DSHB), mouse anti-Nkx2.2 (DSHB), goat anti-Hoxc6 (SCB), rabbit anti-Hoxd9 (SCB), rabbit anti-Otx2 (kindly provided by G. Corte), mouse anti-Isl1 (DSHB), mouse anti-Hoxc 8 (DSHB), mouse anti-NeuN (Chemicon), rabbit anti-dsRed (Clontech), rabbit anti-Brachyury (SCB), mouse anti-Sonic Hedgehog (DSHB), mouse anti-FoxA2 (DSHB), mouse anti-Pax7 (DSHB), mouse anti-Hb9 (DSHB), guinea pig anti-Hb9 (kindly provided by the Project ALS laboratory). […]

In experiment [4] the test system is differentiating ES cells / ES-MNs. Put plainly: Rostro-caudal patterning of differentiating ES cells (Hox / positional marker immunostaining). It counts as cell-based, mouse. As to the method:
Differentiation of cervical level motor neurons from mouse ES cells was performed as previously described (Wichterle et al., 2002). For differentiation of caudal brachial level MNs from ES cells, ES cells were grown in ES cell medium for two days, dissociated and plated into non-adherent tissue culture dishes using ADFNK medium at a density of 20,000 cells/ml. Medium is changed each day but not on Day 3 and Day 4 of differentiation (three and four days after dissociation of ES cells and plating into differentiation medium, respectively). Addition of any factors to differentiating embryonic bodies (EBs) was performed on Day 3. These included: 1 μg/ml Dickopf-1 Dkk1 (R&D Systems), FGF Receptor Inhibitor (PD173074, 100 nM final concentration), FGFb (Recombinant Human, FTF-basic, 120-17, PeproTech), rhGdf11 (R&D Systems, Cat#1958-GD). GDNF (10 ng/ml, R&D Systems) was supplemented on Day 5 of differentiation in selected cultures.
(§2) For immunocytochemical analysis, embryonic bodies (EBs) were dissociated using 0.05% Trypsin-EDTA on Day 6 and plated at low densities on laminin coated coverslips using ADFNB medium supplemented with 10 ng/ml Glial cell-derived neurotrophic factor (GDNF). For quantification of MN subtypes, EBs were collected on Day 6 and dissociated using 0.05 Trypsin-EDTA. Dissociated cells were plated on laminin coated coverslips using ADFNB medium (DMEM/F12, Neurobasal, 1 ml B27 50× supplement and optional 5 ng/ml of GDNF to enhance survival of MN cultures) and fixed with 4% PFA one day later.
as §1
For each experiment, 10 distinct randomized image fields were taken using a confocal microscope LSM Zeiss Meta 510. Expression of all markers used for quantifications was gated to GFP positive cells, ES cell-derived spinal MNs. Images were analyzed for the expression of the above stated markers in the context of the ES cell-derived caudal brachial MNs. Each quantification is the result of at least three independent experiments (three independent differentiation experiments).
All experiments were performed with HBG3 ES cell line harboring Hb9-GFP transgene (Wichterle et al., 2002) and key experiments were confirmed using a control MM13 ES cell line. Differentiation of HBG3 ES cell line under RA/Hh conditions into rostral cervical MNs was performed as previously described (Wichterle et al., 2002; Wichterle and Peljto, 2008). For production of cervical MNs, ES cells were plated at 50,000 cells/ml in ADFNK differentiation medium [Advanced D-MEM/F-12 (Invitrogen): Neurobasal medium (Invitrogen) (1:1), 10% Knockout Serum Replacement (Invitrogen), […] L-Glutamine (Invitrogen), 0.1 mM β-mercaptoethanol (Sigma), and Pen/Strep (Invitrogen)]. Medium was completely changed on days 1, 2 and of differentiation. EBs were split 1:4 on day 2 of differentiation and the medium was supplemented with 1 μM all-trans retinoic acid (RA, Sigma) and Hh agonist (0.5 μM SAG, Calbiochem or 1 μM HhAg1.3, (Frank-Kamenetsky et al., 2002)). To generate caudal brachial level MNs from ES cells under FGF/Hh conditions, ES cells were plated into non-adherent tissue culture dishes in ADFNK medium (˜20,000 cells/ml). Embryoid bodies (EBs) were split 1:4 on day 2 of differentiation and the medium was changed on days 1, 2 and 5. Selected cultures were supplemented with the following reagents: 10 nM-1 μM RA, 10 nM-1 μM Hh Agonist, 1 μg/ml recombinant mouse Dickkopf-1 (R&D Systems), 50-100 nM FGF/VEGF Receptor Tyrosine Kinase Inhibitor (PD173074, Calbiochem) (Mohammadi et al., 1998), 100-625 ng/ml recombinant human bFGF (PeproTech), 20 ng/ml recombinant human Gdf11/Bmp11 (R&D Systems), 10 ng/ml recombinant rat GDNF (R&D Systems). […]

In a further experiment the test system is ES-MNs. The experiment is described as follows: Columnar and divisional identity of ES-MNs (FoxP1, Lhx3, Lhx1 immunostaining). It counts as cell-based, mouse. The protocol:
as §2, §1
For each experiment, 10 distinct randomized image fields were taken using a confocal microscope LSM Zeiss Meta 510. Expression of all markers used for quantifications was gated to GFP positive cells, ES cell-derived spinal MNs. Images were analyzed for the expression of the above stated markers in the context of the ES cell-derived caudal brachial MNs. Each quantification is the result of at least three independent experiments (three independent differentiation experiments). […]

On to `CNC1CCC(N(Cc2cccc(-c3ccncc3)c2)C(=O)c2sc3ccccc3c2Cl)CC1` (stereo not drawn) [HhAg1.3], for which, in the experiment on Hb9-GFP ES cells [1], the “HhAg1.3 concentration that efficiently induces cervical MNs” value was 0.5 to 2 µM. Moreover, in the experiment on Hb9-GFP ES cells [2] (10 nM, 50 nM, 100 nM, 1 μM on day 2, EBs dissociated day 7), the “Percentage of Hb9-GFP+ cells with increasing Hh agonist” value was “does not significantly change the percentage of Hb9-GFP^+ cells”. The “Motor neuron generation at high HhAg1.3 concentrations” value with Hb9-GFP ES cells [2] (ADFNK medium, >500 nM) was “failure to generate motor neurons”. Also, in the experiment with Hb9-GFP ES cells [2] (ADFNK medium, absence or low concentrations of HhAg1.3 (<100 nM) added Day 2, Day 6), the “GFP positive MNs, % of all cells” value is 8-10%. Further, in experiment [3], the “Expression of Nkx2.2 and Foxa2 (Hnf3β)” value is given as “most cells within embryoid bodies expressed the ventral-most markers”; the “Expression of Pax7, Pax6 and Olig2” value is “not detected”.
With `CC1=C(/C=C/C(C)=C/C=C/C(C)=C/C(=O)O)C(C)(C)CCC1` [RA, all-trans retinoic acid, reference compound], the “Hoxc8 expression in ES-MNs, loss after RA” value in experiment [4] (10 nM RA on day 3 of differentiation, two independent experiments) is on record as about 10%. Further, the “Rostro-caudal positional marker expression / segmental identity” value in experiment [4] (Example 1, EBs supplemented on Day 3, markers examined two to four days later) is on record as “induced rostral cervical identity characterized by Hoxa5 expression”. The “Rostro-caudal identity of MNs after RA” value in experiment [4] (Example 2, 10 nM-1 μM on day 3, stained day 7) is reported as “specification of Hoxa5^+ rostral cervical MNs; also recorded: generation of Hoxa5^+ cervical MNs lacking expression of more posterior Hox genes”. The “Rostro-caudal identity (Hoxc8+ ES-MNs) after late RA” value in experiment [4] (RA on day 4 or 5 of differentiation) is given as “did not change the rostro-caudal positional identity; also recorded: does not result in significant changes in the numbers of Hoxc8^+ ES-MNs”. For the same compound, the “FoxP1+ ES-MNs expressing Lhx1” value with ES-MNs (RA (1 μM) on day 5 of differentiation, analysed day 7) was 15%. Further, the “Lhx1+ BrdU- ES-MNs” value with ES-MNs (RA on day 5, BrdU from day 5 onwards, dissociated day 6) is recorded as about 10%.
